One may read the AC50 as the concentration giving half of the maximal activity seen. For orientation: EC50 means the concentration that produces a half-maximal response. In general, IC50 refers to the concentration that inhibits the measured activity by half. One may read the Ki as the dissociation constant of the complex between target and ligand, obtained from inhibition or displacement.

The text below walks through data of ChEMBL document CHEMBL1201862, “PubChem BioAssay data set” (2004).

The source made the active and inactive calls. A value given as a limit tells only on which side of the number the result lay.

For one assay, the system named is INS1. The experiment in a line: INS-1E survival protection against cytokine death – cell-based, luminescence, retest, dose response (AID 449756).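 Further: cell death triggered by IL-1 beta plus TNF-alpha plus IFN-gamma mixture; protective hits raise ATP signal compared with cytokine alone wells.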 The class given is functional. The note with it: Rattus norvegicus.
The next assay addresses T1, Insulin-degrading enzyme (Homo sapiens, UniProt P14735).
T1 sequence (P14735 whole entry): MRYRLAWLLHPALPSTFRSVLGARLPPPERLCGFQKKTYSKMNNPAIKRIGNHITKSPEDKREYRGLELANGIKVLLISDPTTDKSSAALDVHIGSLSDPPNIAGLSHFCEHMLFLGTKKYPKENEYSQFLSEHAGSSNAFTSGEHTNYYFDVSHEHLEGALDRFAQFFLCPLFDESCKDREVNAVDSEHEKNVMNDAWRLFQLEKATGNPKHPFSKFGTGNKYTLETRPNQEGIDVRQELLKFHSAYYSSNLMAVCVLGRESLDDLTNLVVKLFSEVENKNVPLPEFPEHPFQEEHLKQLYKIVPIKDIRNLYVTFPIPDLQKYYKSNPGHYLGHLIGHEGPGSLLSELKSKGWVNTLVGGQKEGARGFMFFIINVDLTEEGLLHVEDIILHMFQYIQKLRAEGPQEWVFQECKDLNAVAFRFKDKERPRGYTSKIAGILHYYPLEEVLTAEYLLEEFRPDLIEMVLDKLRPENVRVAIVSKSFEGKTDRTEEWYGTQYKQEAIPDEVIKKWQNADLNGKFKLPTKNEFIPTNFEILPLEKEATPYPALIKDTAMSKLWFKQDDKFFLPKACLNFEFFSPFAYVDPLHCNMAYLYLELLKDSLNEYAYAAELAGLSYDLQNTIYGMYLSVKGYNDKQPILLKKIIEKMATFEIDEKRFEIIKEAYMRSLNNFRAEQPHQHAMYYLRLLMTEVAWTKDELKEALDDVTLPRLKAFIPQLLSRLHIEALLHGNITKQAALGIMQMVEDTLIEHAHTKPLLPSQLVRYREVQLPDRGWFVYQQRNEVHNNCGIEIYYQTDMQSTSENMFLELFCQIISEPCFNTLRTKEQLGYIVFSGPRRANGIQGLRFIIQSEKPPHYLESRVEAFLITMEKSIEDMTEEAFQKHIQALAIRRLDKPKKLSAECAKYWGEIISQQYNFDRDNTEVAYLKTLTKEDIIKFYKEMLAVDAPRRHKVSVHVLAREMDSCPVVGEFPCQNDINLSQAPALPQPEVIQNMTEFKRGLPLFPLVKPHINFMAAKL
The experiment in a line: cellular IDE activation of Abeta substrate cleavage – fluorescence polarization, HEK cells, dose response (AID 588439). The assay is classed as functional, cell-based.

In a further assay the test system is BJ. In words: growth inhibition of engineered Ras-driven BJ cells – cell-based, alamar blue fluorescence, cherrypicked samples, dose response (AID 2631).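 Further: confirmatory dose-response assay in RAS-dependent BJ fibroblasts engineered with TERT, LT and ST, with cytotoxicity read by fluorescence.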 The assay is classed as functional. The note with it: Homo sapiens.
Assay [1] concerns the target T2, Sentrin-specific protease 6 (Homo sapiens, UniProt Q9GZR1).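 Further: Luminescence-based dose-response confirmatory assay of SENP6 inhibition, following up an ultra-high-throughput screen.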
T2 sequence (Q9GZR1 whole entry): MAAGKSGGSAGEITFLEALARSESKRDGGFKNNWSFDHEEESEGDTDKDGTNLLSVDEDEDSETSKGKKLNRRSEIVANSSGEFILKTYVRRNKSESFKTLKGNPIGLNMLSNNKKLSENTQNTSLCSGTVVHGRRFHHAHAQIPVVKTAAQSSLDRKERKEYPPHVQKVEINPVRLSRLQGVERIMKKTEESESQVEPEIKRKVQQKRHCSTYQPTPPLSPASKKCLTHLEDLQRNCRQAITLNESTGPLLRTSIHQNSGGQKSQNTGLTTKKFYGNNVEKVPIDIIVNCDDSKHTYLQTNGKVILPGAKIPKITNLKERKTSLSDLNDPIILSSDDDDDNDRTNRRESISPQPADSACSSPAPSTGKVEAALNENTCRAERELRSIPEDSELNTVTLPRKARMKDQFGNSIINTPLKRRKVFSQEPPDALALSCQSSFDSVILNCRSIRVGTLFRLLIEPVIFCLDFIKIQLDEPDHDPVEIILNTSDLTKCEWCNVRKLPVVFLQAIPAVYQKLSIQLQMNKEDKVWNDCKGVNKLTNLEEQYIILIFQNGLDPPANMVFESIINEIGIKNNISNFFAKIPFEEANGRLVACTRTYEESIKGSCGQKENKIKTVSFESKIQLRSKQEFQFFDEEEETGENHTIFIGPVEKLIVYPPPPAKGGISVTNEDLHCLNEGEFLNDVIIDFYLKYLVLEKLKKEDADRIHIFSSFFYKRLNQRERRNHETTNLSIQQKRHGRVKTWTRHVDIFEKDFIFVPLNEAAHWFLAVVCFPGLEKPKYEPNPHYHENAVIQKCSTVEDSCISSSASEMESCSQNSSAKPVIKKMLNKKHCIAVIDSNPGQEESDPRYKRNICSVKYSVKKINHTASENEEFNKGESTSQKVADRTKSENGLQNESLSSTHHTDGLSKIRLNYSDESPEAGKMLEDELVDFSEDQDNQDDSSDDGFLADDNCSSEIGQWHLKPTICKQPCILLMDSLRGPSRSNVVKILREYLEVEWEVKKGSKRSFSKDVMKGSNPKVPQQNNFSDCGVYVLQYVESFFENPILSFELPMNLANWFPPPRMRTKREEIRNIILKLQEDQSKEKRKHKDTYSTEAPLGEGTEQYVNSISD
The assay is classed as functional.

Assay [2] addresses Tyrosine-protein kinase JAK3 (Homo sapiens, UniProt P52333). The class given is functional.
For assay [3], the target named is Protein kinase C delta type (Homo sapiens, UniProt Q05655). The class given is functional.
Assay [4] deals with Serine/threonine-protein kinase pim-1 (Homo sapiens, UniProt P11309). The class given is functional.
For assay [5], the target named is Tyrosine-protein kinase JAK2 (Homo sapiens, UniProt O60674). The class given is functional.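 Further: JAK2 tested as one member of a kinase panel.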
Assay [6] deals with Glycogen synthase kinase-3 alpha (Homo sapiens, UniProt P49840). The class given is functional.
Another assay concerns the target Aurora kinase B (Homo sapiens, UniProt Q96GD4). The assay is classed as functional.
The target in assay [7] is 3-phosphoinositide-dependent protein kinase 1 (Homo sapiens, UniProt O15530). The assay is classed as functional.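 Further: value comes from the Navigating the Kinome panel, PDPK1 member.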
The target of assay [8] is Vascular endothelial growth factor receptor 2 (Homo sapiens, UniProt P35968). The assay is classed as functional.
The next assay has as its target Ephrin type-A receptor 2 (Homo sapiens, UniProt P29317). The assay is classed as functional.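 Further: EPHA2 tested as one member of a kinome-wide kinase panel.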
Assay [9] deals with Vascular endothelial growth factor receptor 3 (Homo sapiens, UniProt P35916). The assay is classed as functional.
Assay [10] deals with Cyclin-dependent kinase 2 (Homo sapiens, UniProt P24941). The class given is functional.

Chain of Protein kinase C delta type (Q05655 whole entry): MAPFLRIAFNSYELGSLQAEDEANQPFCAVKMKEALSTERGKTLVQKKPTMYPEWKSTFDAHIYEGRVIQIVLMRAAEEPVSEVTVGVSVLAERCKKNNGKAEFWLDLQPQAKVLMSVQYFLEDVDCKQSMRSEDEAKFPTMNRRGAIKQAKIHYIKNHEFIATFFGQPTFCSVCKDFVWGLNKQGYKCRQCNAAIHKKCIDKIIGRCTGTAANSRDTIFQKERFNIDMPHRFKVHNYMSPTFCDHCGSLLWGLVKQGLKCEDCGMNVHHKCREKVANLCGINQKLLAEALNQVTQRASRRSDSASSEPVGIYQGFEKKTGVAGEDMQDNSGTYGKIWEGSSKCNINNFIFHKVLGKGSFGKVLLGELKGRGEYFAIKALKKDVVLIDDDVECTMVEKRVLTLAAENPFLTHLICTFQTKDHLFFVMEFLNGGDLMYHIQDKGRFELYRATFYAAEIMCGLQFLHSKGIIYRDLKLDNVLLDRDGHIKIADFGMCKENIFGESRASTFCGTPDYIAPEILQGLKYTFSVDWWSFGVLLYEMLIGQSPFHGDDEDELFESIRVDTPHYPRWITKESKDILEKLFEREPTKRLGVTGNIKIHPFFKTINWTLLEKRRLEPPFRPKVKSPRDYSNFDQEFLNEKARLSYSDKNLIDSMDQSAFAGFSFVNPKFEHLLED
Chain of Ephrin type-A receptor 2 (P29317 whole entry): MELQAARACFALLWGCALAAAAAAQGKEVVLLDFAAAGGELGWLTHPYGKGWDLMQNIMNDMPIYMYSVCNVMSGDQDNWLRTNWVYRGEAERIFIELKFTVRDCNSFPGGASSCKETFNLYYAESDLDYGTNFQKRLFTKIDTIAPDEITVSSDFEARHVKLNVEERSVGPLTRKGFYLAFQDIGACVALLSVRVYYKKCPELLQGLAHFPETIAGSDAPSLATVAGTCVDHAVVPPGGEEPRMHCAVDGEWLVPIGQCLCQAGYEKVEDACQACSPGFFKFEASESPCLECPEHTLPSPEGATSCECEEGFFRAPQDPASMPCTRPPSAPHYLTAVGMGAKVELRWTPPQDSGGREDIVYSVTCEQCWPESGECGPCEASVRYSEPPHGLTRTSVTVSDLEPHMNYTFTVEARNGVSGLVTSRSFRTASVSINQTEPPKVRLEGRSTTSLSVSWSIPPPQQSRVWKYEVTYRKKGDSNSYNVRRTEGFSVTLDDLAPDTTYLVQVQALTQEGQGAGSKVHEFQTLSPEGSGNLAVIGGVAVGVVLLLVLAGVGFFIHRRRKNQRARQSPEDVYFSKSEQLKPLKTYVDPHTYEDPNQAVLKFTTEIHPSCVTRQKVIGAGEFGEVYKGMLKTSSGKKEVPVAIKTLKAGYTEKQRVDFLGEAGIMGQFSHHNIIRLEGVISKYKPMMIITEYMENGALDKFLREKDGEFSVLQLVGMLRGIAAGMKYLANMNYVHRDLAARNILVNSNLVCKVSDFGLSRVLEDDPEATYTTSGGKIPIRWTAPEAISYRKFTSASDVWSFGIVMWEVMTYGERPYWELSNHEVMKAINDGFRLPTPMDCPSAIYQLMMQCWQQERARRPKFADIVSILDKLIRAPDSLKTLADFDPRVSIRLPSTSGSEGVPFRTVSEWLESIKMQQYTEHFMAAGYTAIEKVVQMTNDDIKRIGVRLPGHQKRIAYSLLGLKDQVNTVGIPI
Chain of Serine/threonine-protein kinase pim-1 (P11309 whole entry): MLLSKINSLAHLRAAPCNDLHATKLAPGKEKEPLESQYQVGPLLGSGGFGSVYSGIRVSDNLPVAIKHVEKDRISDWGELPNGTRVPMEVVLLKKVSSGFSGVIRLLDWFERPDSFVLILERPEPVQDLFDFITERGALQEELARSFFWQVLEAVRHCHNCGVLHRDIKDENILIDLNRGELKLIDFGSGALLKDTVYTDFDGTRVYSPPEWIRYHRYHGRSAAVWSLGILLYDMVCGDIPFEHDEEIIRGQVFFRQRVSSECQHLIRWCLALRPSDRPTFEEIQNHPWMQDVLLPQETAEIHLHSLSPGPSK
Chain of Tyrosine-protein kinase JAK2 (O60674 whole entry): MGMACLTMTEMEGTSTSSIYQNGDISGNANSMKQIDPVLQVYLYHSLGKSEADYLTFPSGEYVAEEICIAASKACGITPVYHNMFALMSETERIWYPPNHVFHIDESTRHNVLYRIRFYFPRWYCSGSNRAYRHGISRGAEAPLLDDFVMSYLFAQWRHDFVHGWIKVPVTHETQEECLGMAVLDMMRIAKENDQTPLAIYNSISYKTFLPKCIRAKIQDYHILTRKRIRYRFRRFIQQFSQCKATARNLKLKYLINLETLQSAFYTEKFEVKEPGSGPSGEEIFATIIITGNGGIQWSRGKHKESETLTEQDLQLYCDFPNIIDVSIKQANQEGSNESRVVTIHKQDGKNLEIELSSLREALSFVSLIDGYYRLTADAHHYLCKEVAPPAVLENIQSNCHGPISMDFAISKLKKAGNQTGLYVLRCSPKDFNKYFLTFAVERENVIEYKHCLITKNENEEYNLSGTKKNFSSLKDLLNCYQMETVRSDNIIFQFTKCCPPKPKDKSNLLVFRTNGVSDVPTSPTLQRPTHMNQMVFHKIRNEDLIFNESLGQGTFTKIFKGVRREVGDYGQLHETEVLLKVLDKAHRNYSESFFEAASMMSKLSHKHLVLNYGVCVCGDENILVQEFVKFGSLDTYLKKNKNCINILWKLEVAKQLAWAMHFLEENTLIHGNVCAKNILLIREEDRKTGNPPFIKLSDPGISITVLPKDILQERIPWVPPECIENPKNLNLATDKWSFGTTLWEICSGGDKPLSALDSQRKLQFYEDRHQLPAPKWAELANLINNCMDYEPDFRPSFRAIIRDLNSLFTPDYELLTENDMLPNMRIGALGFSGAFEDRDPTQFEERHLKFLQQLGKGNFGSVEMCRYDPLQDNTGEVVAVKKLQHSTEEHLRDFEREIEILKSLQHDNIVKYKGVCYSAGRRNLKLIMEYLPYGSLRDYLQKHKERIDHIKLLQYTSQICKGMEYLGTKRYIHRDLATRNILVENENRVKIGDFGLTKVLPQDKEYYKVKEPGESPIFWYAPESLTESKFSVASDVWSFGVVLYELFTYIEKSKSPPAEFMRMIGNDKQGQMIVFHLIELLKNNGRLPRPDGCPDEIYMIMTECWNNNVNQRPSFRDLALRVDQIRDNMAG
Chain of Vascular endothelial growth factor receptor 3 (P35916 whole entry): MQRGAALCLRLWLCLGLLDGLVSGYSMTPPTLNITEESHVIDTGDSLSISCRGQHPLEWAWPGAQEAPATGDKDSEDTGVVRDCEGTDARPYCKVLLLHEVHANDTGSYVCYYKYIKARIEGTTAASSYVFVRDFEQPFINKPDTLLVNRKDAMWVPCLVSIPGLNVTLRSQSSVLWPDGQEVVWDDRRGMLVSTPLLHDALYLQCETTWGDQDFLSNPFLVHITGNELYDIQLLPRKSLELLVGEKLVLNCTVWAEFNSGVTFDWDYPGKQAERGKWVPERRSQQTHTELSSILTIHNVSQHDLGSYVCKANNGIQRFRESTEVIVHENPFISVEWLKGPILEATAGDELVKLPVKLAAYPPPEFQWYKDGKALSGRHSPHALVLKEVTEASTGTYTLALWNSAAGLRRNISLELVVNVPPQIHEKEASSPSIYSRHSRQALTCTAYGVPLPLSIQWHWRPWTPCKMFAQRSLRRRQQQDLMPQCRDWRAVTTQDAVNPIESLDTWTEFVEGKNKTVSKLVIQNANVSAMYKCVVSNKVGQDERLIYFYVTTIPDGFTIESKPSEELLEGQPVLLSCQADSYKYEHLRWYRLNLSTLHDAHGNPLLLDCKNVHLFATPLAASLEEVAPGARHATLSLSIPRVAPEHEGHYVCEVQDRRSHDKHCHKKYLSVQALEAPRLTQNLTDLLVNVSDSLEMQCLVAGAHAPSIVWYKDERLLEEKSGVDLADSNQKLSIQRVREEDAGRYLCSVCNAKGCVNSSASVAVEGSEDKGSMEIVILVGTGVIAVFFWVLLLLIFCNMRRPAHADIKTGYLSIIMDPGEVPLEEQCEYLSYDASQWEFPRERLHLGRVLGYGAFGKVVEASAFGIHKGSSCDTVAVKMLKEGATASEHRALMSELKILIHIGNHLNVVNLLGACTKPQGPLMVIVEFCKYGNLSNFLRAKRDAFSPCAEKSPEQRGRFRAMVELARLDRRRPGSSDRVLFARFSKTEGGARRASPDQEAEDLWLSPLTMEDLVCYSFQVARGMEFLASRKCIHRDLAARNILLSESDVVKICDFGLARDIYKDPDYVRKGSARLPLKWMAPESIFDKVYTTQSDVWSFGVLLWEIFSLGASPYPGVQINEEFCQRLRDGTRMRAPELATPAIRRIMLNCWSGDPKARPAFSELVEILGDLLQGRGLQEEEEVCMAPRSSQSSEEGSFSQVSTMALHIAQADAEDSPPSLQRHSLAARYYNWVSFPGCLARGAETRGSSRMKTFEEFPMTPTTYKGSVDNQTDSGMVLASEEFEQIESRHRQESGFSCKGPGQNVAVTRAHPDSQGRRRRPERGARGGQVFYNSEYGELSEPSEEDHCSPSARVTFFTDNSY
Chain of Glycogen synthase kinase-3 alpha (P49840 whole entry): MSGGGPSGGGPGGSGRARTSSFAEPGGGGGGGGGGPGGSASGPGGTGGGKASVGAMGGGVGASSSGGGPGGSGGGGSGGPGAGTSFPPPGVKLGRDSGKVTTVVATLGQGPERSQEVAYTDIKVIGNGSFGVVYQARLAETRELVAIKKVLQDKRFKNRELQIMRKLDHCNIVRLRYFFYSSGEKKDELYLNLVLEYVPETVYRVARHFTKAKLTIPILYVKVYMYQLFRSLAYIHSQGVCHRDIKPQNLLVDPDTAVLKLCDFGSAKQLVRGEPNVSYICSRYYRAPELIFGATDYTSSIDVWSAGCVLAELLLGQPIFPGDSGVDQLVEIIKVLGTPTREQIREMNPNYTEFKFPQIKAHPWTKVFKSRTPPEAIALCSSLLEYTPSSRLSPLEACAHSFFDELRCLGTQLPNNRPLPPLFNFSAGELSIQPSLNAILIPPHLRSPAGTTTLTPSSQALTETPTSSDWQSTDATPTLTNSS

Turning to `Cc1cc(N)c2cc(NC(=O)/C=C/c3ccccc3Cl)ccc2n1`, in the assay on INS1, the half-maximal activity concentration (AC50) was 3830 nM (active). Besides, the EC50 is > 54700 nM (inactive) on Insulin-degrading enzyme and 704 nM (inconclusive) with BJ.

With `CCC(C)NC(=O)c1c(N)n(CCCOC)c2nc3ccccc3nc12` (stereo not given), the half-maximal inhibitory concentration (IC50) in assay [1] was 802 nM (active).

Turning to `CC(=NNC(=N)N)c1cc(NC(=O)NCCCCCCNC(=O)Nc2cc(C(C)=NNC(=N)N)cc(C(C)=NNC(=N)N)c2)cc(C(C)=NNC(=N)N)c1`, the Ki in [2] was 1000 nM (active); in assay [3], 316 nM (active); in [4], 158 nM (active); in [5], 1000 nM (active); in assay [6], > 7940 nM (inactive); on Aurora kinase B it was 1260 nM (active). The Ki was > 3980 nM (inactive) in assay [7]; > 7940 nM (inactive) in [8]; > 3160 nM (inactive) on Ephrin type-A receptor 2; > 6310 nM (inactive) in [9]; 501 nM (active) in assay [10].
